Assay: Tissue distribution of radioactivity (whole-body sections, phosphor imaging, image densitometry)
Settings: IV 10 mg/kg
Experimental: The plasma-time course, routes and rates of excretion, and tissue distribution of radioactivity following a single oral dose of ^14C-labeled citrate or single oral dose of ^14C-labeled succinate were analyzed in rats.
CD® rats were obtained from Charles River Laboratories. Animals were 9-11 weeks in age at beginning of study.
Animals given intravenous ^14C-succinate were not kept in a fasting state. ^14C-succinate was administered by tail vein injection.
At 0.5, 1, 2, 4, 8, and 24 hours post-dose, after terminal blood collections, euthanized animals were frozen in a hexane/dry ice bath and embedded in a 5% carboxymethylcellulose matrix according to MPI Research SOP IMG-23.
Sections of approximately 30 μm thickness were taken in the sagittal plane. Appropriate sections selected at various levels of interest in the block were collected to encompass the following tissues, organs, and biological fluids, where possible: adrenal gland, bladder and contents (urine), blood (cardiac), bone, bone marrow, brain, epididymis, eye, fat (brown), fat (white), heart, kidney, large intestine/cecum and contents, liver, lung, muscle, pancreas, prostate/uterus, salivary glands, skin, small intestine and contents, spleen, stomach and contents, testes/ovaries, thymus, thyroid, and mesenteric lymph nodes.
Quantification, relative to the calibration standards, was performed by image densitometry using MCID™ image analysis software according to MPI Research SOP IMG-24. A standard curve was constructed from the integrated response (MDC/mm^2) and the nominal concentrations of the [^14C]calibration standards. The concentrations of radioactivity were expressed as μCi/g and converted to μg or ng equivalents of [^14C]Test Article per gram sample (ng-eq/g or μg-eq/g) using the specific activity of administered [^14C]Test Article dose formulation. A lower limit of quantification (LLOQ) was applied to the data. The LLOQ was determined using the radioactive concentration of the lowest calibration standard used to generate a calibration curve divided by the specific activity of the dose formulation (μCi/mg). Artifacts, such as those produced by dislodged contents of the alimentary canal, were excluded from analysis during image analysis.

SMILES: O=C(O)CCC(=O)O [^14C-succinate]
- Radioactivity in tissue (Eye, 24 Hours): BLQ (BLQ: Below limit of quantitation (<320 ng equivalents test article/g).)
- Radioactivity in tissue (Fat (brown), 0.5 Hour): 996 ng Equivalents test article/g
- Radioactivity in tissue (Fat (brown), 1 Hour): BLQ (BLQ: Below limit of quantitation (<320 ng equivalents test article/g).)
- Radioactivity in tissue (Fat (brown), 2 Hours): BLQ (BLQ: Below limit of quantitation (<320 ng equivalents test article/g).)
- Radioactivity in tissue (Fat (brown), 4 Hours): BLQ (BLQ: Below limit of quantitation (<320 ng equivalents test article/g).)
- Radioactivity in tissue (Fat (brown), 8 Hours): BLQ (BLQ: Below limit of quantitation (<320 ng equivalents test article/g).)
- Radioactivity in tissue (Fat (brown), 24 Hours): BLQ (BLQ: Below limit of quantitation (<320 ng equivalents test article/g).)
- Radioactivity in tissue (Fat (white), 0.5 Hour): BLQ (BLQ: Below limit of quantitation (<320 ng equivalents test article/g).)
- Radioactivity in tissue (Fat (white), 1 Hour): BLQ (BLQ: Below limit of quantitation (<320 ng equivalents test article/g).)
- Radioactivity in tissue (Fat (white), 2 Hours): BLQ (BLQ: Below limit of quantitation (<320 ng equivalents test article/g).)
- Radioactivity in tissue (Fat (white), 4 Hours): 348 ng Equivalents test article/g
- Radioactivity in tissue (Fat (white), 8 Hours): BLQ (BLQ: Below limit of quantitation (<320 ng equivalents test article/g).)
- Radioactivity in tissue (Fat (white), 24 Hours): BLQ (BLQ: Below limit of quantitation (<320 ng equivalents test article/g).)
- Radioactivity in tissue (Harderian gland, 0.5 Hour): BLQ (BLQ: Below limit of quantitation (<320 ng equivalents test article/g).)
- Radioactivity in tissue (Harderian gland, 1 Hour): 1983 ng Equivalents test article/g
- Radioactivity in tissue (Harderian gland, 2 Hours): 1478 ng Equivalents test article/g
- Radioactivity in tissue (Harderian gland, 4 Hours): BLQ (BLQ: Below limit of quantitation (<320 ng equivalents test article/g).)
- Radioactivity in tissue (Harderian gland, 8 Hours): BLQ (BLQ: Below limit of quantitation (<320 ng equivalents test article/g).)
- Radioactivity in tissue (Harderian gland, 24 Hours): BLQ (BLQ: Below limit of quantitation (<320 ng equivalents test article/g).)
- Radioactivity in tissue (Kidney, 0.5 Hour): 3154 ng Equivalents test article/g
- Radioactivity in tissue (Kidney, 1 Hour): 3060 ng Equivalents test article/g
- Radioactivity in tissue (Kidney, 2 Hours): 2704 ng Equivalents test article/g
- Radioactivity in tissue (Kidney, 4 Hours): 2075 ng Equivalents test article/g
- Radioactivity in tissue (Kidney, 8 Hours): 2031 ng Equivalents test article/g
- Radioactivity in tissue (Kidney, 24 Hours): 1120 ng Equivalents test article/g
- Radioactivity in tissue (Lacrimal gland (Ex-orbital), 0.5 Hour): BLQ (BLQ: Below limit of quantitation (<320 ng equivalents test article/g).)
- Radioactivity in tissue (Lacrimal gland (Ex-orbital), 1 Hour): 1557 ng Equivalents test article/g
- Radioactivity in tissue (Lacrimal gland (Ex-orbital), 2 Hours): 1655 ng Equivalents test article/g
- Radioactivity in tissue (Lacrimal gland (Ex-orbital), 4 Hours): 1993 ng Equivalents test article/g
- Radioactivity in tissue (Lacrimal gland (Ex-orbital), 8 Hours): 1388 ng Equivalents test article/g
- Radioactivity in tissue (Lacrimal gland (Ex-orbital), 24 Hours): BLQ (BLQ: Below limit of quantitation (<320 ng equivalents test article/g).)
- Radioactivity in tissue (Lacrimal gland (Intra-orbital), 0.5 Hour): BLQ (BLQ: Below limit of quantitation (<320 ng equivalents test article/g).)
- Radioactivity in tissue (Lacrimal gland (Intra-orbital), 1 Hour): 2323 ng Equivalents test article/g
- Radioactivity in tissue (Lacrimal gland (Intra-orbital), 2 Hours): 1355 ng Equivalents test article/g
- Radioactivity in tissue (Lacrimal gland (Intra-orbital), 4 Hours): BLQ (BLQ: Below limit of quantitation (<320 ng equivalents test article/g).)
- Radioactivity in tissue (Lacrimal gland (Intra-orbital), 8 Hours): BLQ (BLQ: Below limit of quantitation (<320 ng equivalents test article/g).)
- Radioactivity in tissue (Lacrimal gland (Intra-orbital), 24 Hours): BLQ (BLQ: Below limit of quantitation (<320 ng equivalents test article/g).)
- Radioactivity in tissue (Large intestinal contents, 0.5 Hour): BLQ (BLQ: Below limit of quantitation (<320 ng equivalents test article/g).)
- Radioactivity in tissue (Large intestinal contents, 1 Hour): 519 ng Equivalents test article/g
- Radioactivity in tissue (Large intestinal contents, 4 Hours): 810 ng Equivalents test article/g
- Radioactivity in tissue (Large intestinal contents, 8 Hours): 593 ng Equivalents test article/g
- Radioactivity in tissue (Large intestinal contents, 24 Hours): BLQ (BLQ: Below limit of quantitation (<320 ng equivalents test article/g).)
- Radioactivity in tissue (Large intestine, 0.5 Hour): BLQ (BLQ: Below limit of quantitation (<320 ng equivalents test article/g).)
- Radioactivity in tissue (Large intestine, 1 Hour): 1787 ng Equivalents test article/g
- Radioactivity in tissue (Large intestine, 2 Hours): 1716 ng Equivalents test article/g
- Radioactivity in tissue (Large intestine, 4 Hours): 1361 ng Equivalents test article/g
- Radioactivity in tissue (Large intestine, 8 Hours): BLQ (BLQ: Below limit of quantitation (<320 ng equivalents test article/g).)
- Radioactivity in tissue (Large intestine, 24 Hours): BLQ (BLQ: Below limit of quantitation (<320 ng equivalents test article/g).)
- Radioactivity in tissue (Liver, 0.5 Hour): 2431 ng Equivalents test article/g
- Radioactivity in tissue (Liver, 1 Hour): 3607 ng Equivalents test article/g
- Radioactivity in tissue (Liver, 2 Hours): 2005 ng Equivalents test article/g
- Radioactivity in tissue (Liver, 4 Hours): 1561 ng Equivalents test article/g
- Radioactivity in tissue (Liver, 8 Hours): 1190 ng Equivalents test article/g

From US20210346329A1, “TCA CYCLE INTERMEDIATES AND METHODS OF USE THEREOF” (IMBRIA PHARMACEUTICALS, INC., priority 2018, published 2021)
